Measurements as given in ChEMBL document CHEMBL1123622, “Quantitative structure-activity relationships of the bitter thresholds of amino acids, peptides, and their derivatives” (J Med Chem, 1987).
Non-standard residues stand in square brackets, D forms with d. Residues, ends and D or L forms follow the SMILES beside them.

What was measured:
[1] = Bitter threshold value; B denotes 'bitter'; assay type: functional
[2] = Bitter threshold value; NI denotes'Not identifiable (Citrous or fruity taste)'; assay type: functional

CC(C)C[C@H](NC(=O)[C@H](C)NC(=O)[C@H](C)N)C(=O)O (H-Ala-Ala-Leu-OH)
Log 1/T [1]: Bitter

CC[C@H](C)[C@H](NC(=O)[C@H](C)N)C(=O)N[C@@H](C)C(=O)O (H-Ala-Ile-Ala-OH)
Log 1/T [1]: Bitter

CC(C)C[C@H](NC(=O)[C@H](C)NC(=O)CN)C(=O)O (H-Gly-Ala-Leu-OH)
Log 1/T [1]: Bitter

O=C(O)CNC(=O)[C@@H]1CCCN1 (H-Pro-Gly-OH)
Log 1/T [2]: Not identifiable

CC(C)[C@H](NC(=O)[C@@H]1CCCN1)C(=O)O (H-Pro-Val-OH)
Log 1/T [2]: Not identifiable

CC(C)C[C@@H](N)C(=O)NCC(=O)O (H-[dL]-Gly-OH)
Log 1/T [1]: Bitter
